According to US20250230193A1, “CYCLIC COMPOUND HAVING SELECTIVE KRAS INHIBITORY EFFECT ON HRAS AND NRAS” (CHUGAI SEIYAKU KABUSHIKI KAISHA, priority 2022, published 2025):
pIC50: −log10 of the molar value. Read-outs that look alike come from different tables or passages of the source. *1 amine or outer side, *2 acyl side, *3 side chain or, on linkers, in order; H or OH if unused. Where a SMILES comes first, the peptide text is derived from it. Bridges are numbered along the chain shown (N, C = ends). [ ]: non-standard residue; d: D form. The star is where a group is joined. X6 = CC(C)(C)CCN([C@@H](Cc1ccc(C(F)(F)F)cc1)C(=O)[*:2])[*:1]; dhPhe(3-Cl,4-CF3) = N[C@H](CCc1ccc(C(F)(F)F)c(Cl)c1)C(=O)O; hPhe(3-Cl-4-CF3) = N[C@@H](CCc1ccc(C(F)(F)F)c(Cl)c1)C(=O)O; X3 = C=CCN([C@H](Cc1ccccc1)C(=O)[*:2])[*:1]; X5 = CCCN([C@H](C(=O)[*:2])C1CCCC1)[*:1]; NMeGly(cPent) = CN[C@H](C(=O)O)C1CCCC1; NMeNle(5-ene) = C=CCC[C@H](NC)C(=O)O; NMeD = CN[C@@H](CC(=O)O)C(=O)O; NMeL = CN[C@@H](CC(C)C)C(=O)O; Morpholide = C1CN(*)CCO1; NMeA = CN[C@@H](C)C(=O)O; Ac5c = NC1(C(=O)O)CCCC1; Aze = O=C(O)[C@@H]1CCN1; Sar = CNCC(=O)O

Experiments:
[1] = target: GDP-bound HRAS wild-type protein (Homo sapiens, UniProt P01112); assay: Binding to HRAS by surface plasmon resonance (SPR), Single Cycle Kinetics; settings: SPR
[2] = tested on: human lung cancer strain NCI-H441
[3] = target: GDP-bound NRAS wild-type protein (Homo sapiens, UniProt P01111); assay: Binding to NRAS by surface plasmon resonance (SPR), Single Cycle Kinetics; settings: SPR
Chain of GDP-bound NRAS wild-type protein (P01111 whole entry): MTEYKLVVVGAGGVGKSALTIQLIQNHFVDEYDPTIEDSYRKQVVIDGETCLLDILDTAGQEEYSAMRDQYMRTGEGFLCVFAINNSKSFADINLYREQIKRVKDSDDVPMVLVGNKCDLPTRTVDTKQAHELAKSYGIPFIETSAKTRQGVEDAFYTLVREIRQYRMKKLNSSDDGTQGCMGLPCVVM

Chain of GDP-bound HRAS wild-type protein (P01112 whole entry): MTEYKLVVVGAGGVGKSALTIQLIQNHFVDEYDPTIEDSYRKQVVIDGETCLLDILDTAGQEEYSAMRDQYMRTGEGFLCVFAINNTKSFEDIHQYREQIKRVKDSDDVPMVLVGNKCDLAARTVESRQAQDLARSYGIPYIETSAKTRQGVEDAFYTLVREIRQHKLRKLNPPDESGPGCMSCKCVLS

Compound | pIC50 [2] | HRAS/KRAS (ratio of KD value with respect to GDP-bound HRAS wild-type protein to KD value with respect to KRAS) [1] | NRAS/KRAS (ratio of KD value with respect to GDP-bound NRAS wild-type protein to KD value with respect to KRAS) [3] | further results
CCCN1C(=O)[C@@H]2CCN2C(=O)[C@H](C)N(C)C(=O)[C@H]([C@@H](C)CC)NC(=O)[C@H](CC(C)C)N(C)C(=O)C[C@@H](C(=O)N2CCOCC2)N(C)C(=O)[C@H](C2CCCC2)N(C)C(=O)C2(CCCC2)NC(=O)[C@@H]2CCCN2C(=O)[C@H](CCc2ccc(C(F)(F)F)c(Cl)c2)NC(=O)CN(C)C(=O)[C@@H]1C1CCCC1 [PP0054] ([NMeL]I[NMeA][Aze][X5][Sar][hPhe(3-Cl-4-CF3)]P[Ac5c][NMeGly(cPent)][NMeD]-Morpholide; lactam N-11) |  |  |  | HRAS/KRAS (ratio of KD for GDP-bound HRAS wild-type to KD for KRAS) [1]: C (A compound having a KD ratio of 0.1 or more and less than 3 is denoted as C); pIC50 ([2]; read-out: NCI-H441 IC50, NCI-H441 cells, 4 days, CellTiter-Glo): 7.09; NRAS/KRAS (ratio of KD for GDP-bound NRAS wild-type to KD for KRAS) [3]: C (A compound having a KD ratio of 0.1 or more and less than 3 is denoted as C)
CC[C@H](C)[C@@H]1NC(=O)[C@H](CC(C)C)N(C)C(=O)C[C@@H](C(=O)N2CCOCC2)N(C)C(=O)[C@H](C2CCCC2)N(C)C(=O)C2(CCCC2)NC(=O)[C@@H]2CCCN2C(=O)[C@H](CCc2ccc(C(F)(F)F)c(Cl)c2)NC(=O)CN(C)C(=O)[C@H](Cc2ccc(C(F)(F)F)cc2)N(CCC(C)(C)C)C(=O)CN(C)C(=O)CN(C)C1=O [PP0127] ([NMeL]I[Sar][Sar][X6][Sar][hPhe(3-Cl-4-CF3)]P[Ac5c][NMeGly(cPent)][NMeD]-Morpholide; lactam N-11) | 7.60 |  |  | HRAS/KRAS (ratio of KD for GDP-bound HRAS wild-type to KD for KRAS) [1]: C (A compound having a KD ratio of 0.1 or more and less than 3 is denoted as C); NRAS/KRAS (ratio of KD for GDP-bound NRAS wild-type to KD for KRAS) [3]: C (A compound having a KD ratio of 0.1 or more and less than 3 is denoted as C)
C=CCC[C@H]1C(=O)N(CC=C)[C@H](Cc2ccccc2)C(=O)N(C)CC(=O)N[C@H](CCc2ccc(C(F)(F)F)c(Cl)c2)C(=O)N2CCC[C@H]2C(=O)NC2(CCCC2)C(=O)N(C)[C@@H](C2CCCC2)C(=O)N(C)[C@H](C(=O)N2CCOCC2)CC(=O)N(C)[C@@H](CC(C)C)C(=O)N[C@@H]([C@@H](C)CC)C(=O)N(C)CC(=O)N1C [PP0599] ([NMeL]I[Sar][NMeNle(5-ene)][X3][Sar][dhPhe(3-Cl,4-CF3)]P[Ac5c][NMeGly(cPent)][NMeD]-Morpholide; lactam N-11) | 5.55 | B (a compound having 3 or more and less than 10 is denoted as B) | C (A compound having a KD ratio of 0.1 or more and less than 3 is denoted as C) | 
CC[C@H](C)C1NC(=O)[C@H](CC(C)C)N(C)C(=O)C[C@@H](C(=O)N(C)C)N(C)C(=O)[C@H](C2CCCC2)N(C)C(=O)C2(CCCC2)NC(=O)C2CCCN2C(=O)[C@@H](CCc2ccc(C(F)(F)F)c(Cl)c2)NC(=O)CN(C)C(=O)[C@@H](Cc2ccc(C)cc2)N2CC/C=C\CCN(CC2=O)C(=O)CN(C)C1=O (stereo partly shown) [PP0618] | 7.10 | C (A compound having a KD ratio of 0.1 or more and less than 3 is denoted as C) | C (A compound having a KD ratio of 0.1 or more and less than 3 is denoted as C) | 
CC[C@H](C)[C@@H]1NC(=O)[C@H](CC(C)C)N(C)C(=O)C[C@@H](C(=O)N(C)C)N(C)C(=O)[C@H](C2CCCC2)N(C)C(=O)C2(CCCC2)NC(=O)C2CCCN2C(=O)[C@H](CCc2ccc(C(F)(F)F)c(Cl)c2)NC(=O)CN(C)C(=O)[C@H](Cc2ccc(C(F)(F)F)cc2)N2CC/C=C\COC[C@@H](C2=O)N(C)C(=O)CN(C)C1=O (stereo partly shown) [PP0622] | 6.48 | B (a compound having 3 or more and less than 10 is denoted as B) | B (a compound having 3 or more and less than 10 is denoted as B) | 
CC[C@H](C)[C@@H]1NC(=O)[C@H](CC(C)C)N(C)C(=O)C[C@@H](C(=O)N(C)C)N(C)C(=O)[C@H](C2CCCC2)N(C)C(=O)C2(CCCC2)NC(=O)[C@@H]2CCCN2C(=O)[C@H](CCc2ccc(C(F)(F)F)c(Cl)c2)NC(=O)CN(C)C(=O)[C@H](Cc2ccc(C)cc2)N2C/C=C\COC[C@@H](C2=O)N(C)C(=O)CN(C)C1=O [PP0627] | 7.01 |  |  | 
CC[C@H](C)[C@@H]1NC(=O)[C@H](CC(C)C)N(C)C(=O)C[C@@H](C)N(C)C(=O)[C@H](C2CCCC2)N(C)C(=O)C2(CCC2)NC(=O)[C@@H]2CCCN2C(=O)[C@H](CCc2cc(F)c(C(F)(F)F)c(F)c2)NC(=O)CN(C)C(=O)[C@H](Cc2ccc(C(F)(F)F)cc2)N2CC/C=C\C[C@@H](C2=O)N(C)C(=O)CN(C)C1=O [PP1099] | 7.17 |  |  | HRAS/KRAS (ratio of KD value with respect to HRAS to KD value with respect to KRAS) ([1]; KD ratio, GDP-bound HRAS wild-type vs GDP-bound KRAS wild-type): A (a compound having 10 or more and less than 20 is denoted as A); NRAS/KRAS (ratio of KD value with respect to NRAS to KD value with respect to KRAS) ([3]; KD ratio, GDP-bound NRAS wild-type vs GDP-bound KRAS wild-type): B (a compound having 3 or more and less than 10 is denoted as B)
